Test results as given in ChEMBL document CHEMBL4364293, “Design, Synthesis, and Structure-Activity Relationship of 7-Propanamide Benzoxaboroles as Potent Anticancer Agents” (J Med Chem, 2019).
Active and inactive are the calls of the source. The rule behind the calls is not given here.

Tests used:
HCT-116 = assay: Antiproliferative activity against human HCT116 cells after 72 hrs by MTT assay; format: functional, cell-based; settings: HCT-116, 72 h
[1] = Selectivity ratio, ratio of IC50 for human WI38 cells to IC50 for human SKOV3 cells; format: toxicity; settings: WI38 cells versus SKOV3 cells, read-out: Ratio IC50
WI-38 = assay: Cytotoxicity against human WI38 cells after 72 hrs by MTT assay; format: cell-based; settings: WI-38, 72 h
SK-OV-3 [2] = assay: Antiproliferative activity against human SKOV3 cells after 72 hrs by MTT assay; format: functional, cell-based; settings: SK-OV-3, 72 h
MDA-MB-231 = assay: Antiproliferative activity against human MDA-MB-231 cells after 72 hrs by MTT assay; format: functional, cell-based; settings: MDA-MB-231, 72 h
NCI-H460 [3] = assay: Induction of apoptosis in human NCI-H460 cells assessed as increase in cleaved caspase-3 expression at low concentration after 48 hrs by Western blot analysis; format: functional, cell-based
[4] = Apparent permeability across basolateral to apical side in human Caco2 cells; format: ADME, cell-based; settings: Caco-2
NCI-H460 [5] = assay: Induction of apoptosis in human NCI-H460 cells assessed as increase in cleaved caspase-9 expression at low concentration after 48 hrs by Western blot analysis; format: functional, cell-based
SW480 [6] = assay: Antitumor activity against human SW480 cells xenografted in ip dosed BALB/c mouse assessed as reduction in tumor volume administered once daily for 33 days and measured every 3 days during compound dosing; format: functional, organism-based
[7] = Apparent permeability across apical to basolateral side in human Caco2 cells; format: ADME, cell-based; settings: Caco-2
SK-OV-3 [8] = assay: Induction of apoptosis in human SKOV3 cells assessed as viable cells at 10 uM after 48 hrs by Annexin V-FITC/propidium iodide staining based FACS analysis (reference value: 91%); format: functional; settings: SK-OV-3, 48 h, read-out: Activity
NCI-H460 [9] = assay: Induction of apoptosis in human NCI-H460 cells assessed as increase in cleaved PARP expression at low concentration after 48 hrs by Western blot analysis; format: functional, cell-based
SK-OV-3 [10] = assay: Induction of apoptosis in human SKOV3 cells assessed as late apoptotic cells at 1 uM after 48 hrs by Annexin V-FITC/propidium iodide staining based FACS analysis (reference value: 5.97%); format: functional
[11] = Oral bioavailability in Sprague-Dawley rat at 10 mg/kg by non-compartmental analysis; format: ADME, organism-based; settings: in vivo
[12] = Half-life in Sprague-Dawley rat at 2 mg/kg, iv by non-compartmental analysis; format: ADME, organism-based; settings: in vivo
SK-OV-3 [13] = assay: Induction of apoptosis in human SKOV3 cells assessed as necrotic cells at 3 uM after 48 hrs by Annexin V-FITC/propidium iodide staining based FACS analysis (reference value: 1.06%); format: functional
SK-OV-3 [14] = assay: Induction of apoptosis in human SKOV3 cells assessed as viable cells at 1 uM after 48 hrs by Annexin V-FITC/propidium iodide staining based FACS analysis (reference value: 91%); format: functional; settings: SK-OV-3, 48 h, read-out: Activity
[15] = Efflux ratio of apparent permeability from basolateral to apical over apical to basolateral side in human Caco2 cells; format: ADME, cell-based; settings: Caco-2
SK-OV-3 [16] = assay: Induction of apoptosis in human SKOV3 cells assessed as necrotic cells at 1 uM after 48 hrs by Annexin V-FITC/propidium iodide staining based FACS analysis (reference value: 1.06%); format: functional
[17] = AUC infinity in Sprague-Dawley rat at 10 mg/kg, po by non-compartmental analysis; format: ADME, organism-based; set-up: dose 10 mg/kg, time infinity, route oral; settings: in vivo
SK-OV-3 [18] = assay: Induction of apoptosis in human SKOV3 cells assessed as early apoptotic cells at 3 uM after 48 hrs by Annexin V-FITC/propidium iodide staining based FACS analysis (reference value: 1.95%); format: functional
[19] = Volume of distribution at steady state in Sprague-Dawley rat at 2 mg/kg, iv by non-compartmental analysis; format: ADME, organism-based; settings: in vivo, read-out: Vdss
SK-OV-3 [20] = assay: Induction of apoptosis in human SKOV3 cells assessed as viable cells at 3 uM after 48 hrs by Annexin V-FITC/propidium iodide staining based FACS analysis (reference value: 91%); format: functional; settings: SK-OV-3, 48 h, read-out: Activity
SK-OV-3 [21] = assay: Induction of apoptosis in human SKOV3 cells assessed as necrotic cells at 10 uM after 48 hrs by Annexin V-FITC/propidium iodide staining based FACS analysis (reference value: 1.06%); format: functional
SK-OV-3 [22] = assay: Induction of apoptosis in human SKOV3 cells assessed as early apoptotic cells at 1 uM after 48 hrs by Annexin V-FITC/propidium iodide staining based FACS analysis (reference value: 1.95%); format: functional
[23] = biological target: Leucine--tRNA ligase, cytoplasmic (Homo sapiens) (UniProt Q9P2J5); assay: Inhibition of human leucyl-tRNA synthetase
Leucine--tRNA ligase, cytoplasmic (Homo sapiens), sequence (Q9P2J5 whole entry, looked up): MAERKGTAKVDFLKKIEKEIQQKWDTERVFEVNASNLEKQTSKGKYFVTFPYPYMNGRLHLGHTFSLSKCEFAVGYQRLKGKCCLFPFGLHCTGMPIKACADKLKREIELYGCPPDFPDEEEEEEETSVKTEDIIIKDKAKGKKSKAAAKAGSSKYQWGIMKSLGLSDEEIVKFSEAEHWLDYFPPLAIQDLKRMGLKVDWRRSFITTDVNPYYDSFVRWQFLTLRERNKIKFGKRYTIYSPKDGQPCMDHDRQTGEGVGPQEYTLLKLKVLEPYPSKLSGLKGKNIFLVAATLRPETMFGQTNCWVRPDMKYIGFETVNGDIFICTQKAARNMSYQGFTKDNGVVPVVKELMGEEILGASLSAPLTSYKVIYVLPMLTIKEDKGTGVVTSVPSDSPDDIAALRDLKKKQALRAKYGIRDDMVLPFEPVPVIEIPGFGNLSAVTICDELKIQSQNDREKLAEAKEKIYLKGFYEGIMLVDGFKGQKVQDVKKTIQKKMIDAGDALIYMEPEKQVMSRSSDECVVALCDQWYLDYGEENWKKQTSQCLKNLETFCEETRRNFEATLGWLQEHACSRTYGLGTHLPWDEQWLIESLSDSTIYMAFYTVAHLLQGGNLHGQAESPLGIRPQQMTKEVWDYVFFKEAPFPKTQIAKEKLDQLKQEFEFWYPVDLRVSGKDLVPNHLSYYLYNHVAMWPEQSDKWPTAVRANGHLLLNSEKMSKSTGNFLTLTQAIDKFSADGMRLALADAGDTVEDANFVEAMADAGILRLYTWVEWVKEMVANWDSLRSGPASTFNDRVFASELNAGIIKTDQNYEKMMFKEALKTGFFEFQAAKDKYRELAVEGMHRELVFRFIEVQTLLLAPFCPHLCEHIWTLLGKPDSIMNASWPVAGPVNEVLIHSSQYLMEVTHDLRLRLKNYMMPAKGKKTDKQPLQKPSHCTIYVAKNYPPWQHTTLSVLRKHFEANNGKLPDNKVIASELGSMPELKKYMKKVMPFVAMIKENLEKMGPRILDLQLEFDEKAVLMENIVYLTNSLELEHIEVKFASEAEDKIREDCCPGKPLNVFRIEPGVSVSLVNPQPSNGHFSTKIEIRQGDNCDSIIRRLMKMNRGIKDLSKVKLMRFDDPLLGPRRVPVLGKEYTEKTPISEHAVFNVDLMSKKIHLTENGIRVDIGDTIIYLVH

[24] = Clearance in Sprague-Dawley rat at 2 mg/kg, iv by non-compartmental analysis; format: ADME, organism-based; settings: in vivo
SK-OV-3 [25] = assay: Induction of apoptosis in human SKOV3 cells assessed as late apoptotic cells at 3 uM after 48 hrs by Annexin V-FITC/propidium iodide staining based FACS analysis (reference value: 5.97%); format: functional
SK-OV-3 [26] = assay: Inhibition of colony formation in human SKOV3 cells at 0.0625 to 1 uM supplemented with fresh medium containing compound every 72 hrs for 2 weeks by crystal violet staining based assay; format: functional, cell-based
[27] = Half-life in Sprague-Dawley rat at 10 mg/kg, po by non-compartmental analysis; format: ADME, organism-based; settings: in vivo
SK-OV-3 [28] = assay: Induction of apoptosis in human SKOV3 cells assessed as early apoptotic cells at 10 uM after 48 hrs by Annexin V-FITC/propidium iodide staining based FACS analysis (reference value: 1.95%); format: functional
SK-OV-3 [29] = assay: Induction of apoptosis in human SKOV3 cells after 48 hrs by Annexin V-FITC/propidium iodide staining based FACS analysis (reference value: 1.06%); format: functional, cell-based
SW480 [30] = assay: Antitumor activity against human SW480 cells xenografted in ip dosed BALB/c mouse assessed as reduction in tumor weight administered once daily for 33 days and measured every 3 days during compound dosing; format: functional, organism-based
[31] = AUC infinity in Sprague-Dawley rat at 2 mg/kg, iv by non-compartmental analysis; format: ADME, organism-based; set-up: dose 2 mg/kg, time infinity, route intravenous; settings: in vivo
[32] = Tmax in Sprague-Dawley rat at 10 mg/kg, po by non-compartmental analysis; format: ADME, organism-based; settings: in vivo
SK-OV-3 [33] = assay: Induction of apoptosis in human SKOV3 cells assessed as late apoptotic cells at 10 uM after 48 hrs by Annexin V-FITC/propidium iodide staining based FACS analysis (reference value: 5.97%); format: functional
[34] = Cmax in Sprague-Dawley rat at 10 mg/kg, po by non-compartmental analysis; format: ADME, organism-based; set-up: dose 10 mg/kg, route oral; settings: in vivo
[35] = Toxicity in BALB/c mouse xenografted with human SW480 cells assessed as reduction in body weight at 2 to 10 mg/kg, ip administered once daily for 33 days and measured every 3 days during compound dosing; format: organism-based; settings: in vivo

O=C(CCc1cccc2c1B(O)OC2)Nc1cccc(-c2ccc(F)cc2)c1
IC50 (HCT-116): 550 nM
selectivity ratio [1]: 44
IC50 (WI-38): 4100 nM
IC50 (SK-OV-3 [2]): 93 nM
IC50 (MDA-MB-231): 250 nM

COc1cccc(-c2cccc(NC(=O)CCc3cccc4c3B(O)OC4)c2)c1
IC50 (HCT-116): 260 nM
Activity (NCI-H460 [3]): Active
Papp B→A [4]: 26.5 ×10⁻⁶ cm/s
Activity (NCI-H460 [5]): Active
Activity (SW480 [6]): Dose-dependent effect
Papp A→B [7]: 19.5 ×10⁻⁶ cm/s
viability at 10 µM (SK-OV-3 [8]): 48.1%
selectivity ratio [1]: 100
Activity (NCI-H460 [9]): Active
Activity (SK-OV-3 [10]): 15.4%
bioavailability [11]: 19.5%
half-life [12]: 1.4 h
Activity (SK-OV-3 [13]): 0.593%
viability at 1 µM (SK-OV-3 [14]): 71%
efflux ratio [15]: 1.36
Activity (SK-OV-3 [16]): 0.808%
AUC(0-inf) [17]: 547 ng·h/mL
IC50 (WI-38): 3200 nM
Activity (SK-OV-3 [18]): 14.5%
Vd [19]: 7.63 L/kg
IC50 (SK-OV-3 [2]): 33 nM
viability at 3 µM (SK-OV-3 [20]): 67.8%
Activity (SK-OV-3 [21]): 0.505%
Activity (SK-OV-3 [22]): 12.8%
inhibition [23]: inactive
clearance [24]: 62.5 mL/min/kg
Activity (SK-OV-3 [25]): 17.1%
inhibition (SK-OV-3 [26]): Active
half-life [27]: 2.2 h
IC50 (MDA-MB-231): 37 nM
Activity (SK-OV-3 [28]): 20.6%
Activity (SK-OV-3 [29]): Dose-dependent effect
Activity (SW480 [30]): Dose-dependent effect
AUC(0-inf) [31]: 551 ng·h/mL
Tmax [32]: 0.2 h
Activity (SK-OV-3 [33]): 30.7%
Cmax [34]: 434 ng/mL
Activity [35]: Non-Toxic

CC(=O)c1ccc(-c2cccc(NC(=O)CCc3cccc4c3B(O)OC4)c2)cc1
IC50 (HCT-116): 110 nM
Papp B→A [4]: 2.23 ×10⁻⁶ cm/s
Activity (SW480 [6]): Dose-dependent effect
Papp A→B [7]: 3.95 ×10⁻⁶ cm/s
selectivity ratio [1]: 180
bioavailability [11]: 4.6%
half-life [12]: 0.6 h
efflux ratio [15]: 0.56
AUC(0-inf) [17]: 459 ng·h/mL
IC50 (WI-38): 3700 nM
Vd [19]: 0.882 L/kg
IC50 (SK-OV-3 [2]): 21 nM
inhibition [23]: inactive
clearance [24]: 17.5 mL/min/kg
half-life [27]: 2 h
IC50 (MDA-MB-231): 56 nM
Activity (SW480 [30]): Dose-dependent effect
AUC(0-inf) [31]: 1920 ng·h/mL
Tmax [32]: 0.25 h
Cmax [34]: 373 ng/mL
Activity [35]: Non-Toxic

O=C(CCc1cccc2c1B(O)OC2)Nc1ccccc1
IC50 (HCT-116): 350 nM
selectivity ratio [1]: 150
IC50 (WI-38): 30000 nM
IC50 (SK-OV-3 [2]): 200 nM
IC50 (MDA-MB-231): 230 nM

CC(=O)c1ccc(-c2cccc(NC(=O)CCc3cccc4c3C(O)OC4)c2)cc1 (stereo not drawn)
IC50 (HCT-116): 18000 nM
IC50 (WI-38): > 100000 nM
IC50 (SK-OV-3 [2]): 41000 nM
IC50 (MDA-MB-231): 29000 nM

O=C(O)CCc1cccc2c1B(O)OC2
IC50 (HCT-116): > 100000 nM
IC50 (WI-38): > 100000 nM
IC50 (SK-OV-3 [2]): > 100000 nM
IC50 (MDA-MB-231): > 100000 nM

O=C(CCc1cccc2c1B(O)OC2)Nc1cccc(-c2cccc(OC(F)(F)F)c2)c1
IC50 (HCT-116): 310 nM
IC50 (WI-38): 9800 nM
IC50 (SK-OV-3 [2]): 460 nM
IC50 (MDA-MB-231): 460 nM

O=C(CCc1cccc2c1B(O)OC2)Nc1cccc(-c2ccc(C(F)(F)F)cc2)c1
IC50 (HCT-116): 550 nM
IC50 (WI-38): 26000 nM
IC50 (SK-OV-3 [2]): 500 nM
IC50 (MDA-MB-231): 510 nM

CC(C)c1cccc(NC(=O)CCc2cccc3c2B(O)OC3)c1
IC50 (HCT-116): 1600 nM
IC50 (WI-38): 22000 nM
IC50 (SK-OV-3 [2]): 510 nM
IC50 (MDA-MB-231): 1600 nM

COc1ccc(NC(=O)CCc2cccc3c2B(O)OC3)cc1OC
IC50 (HCT-116): > 100000 nM
IC50 (WI-38): > 100000 nM
IC50 (SK-OV-3 [2]): > 100000 nM
IC50 (MDA-MB-231): > 100000 nM
